According to article PMC2713373 (Biochemistry, 2009):

Target: MtmOIV (Streptomyces argillaceus, UniProt Q194P4)
Assay: X-ray crystal structure, […] Å
Format: binding
Details: non-covalently bound, IN conformation

## Cc1cc2nc3c(=O)[nH]c(=O)nc-3n(C[C@H](O)[C@H](O)[C@H](O)COP(=O)(O)OP(=O)(O)OC[C@H]3O[C@@H](n4cnc5c(N)ncnc54)[C@H](O)[C@@H]3O)c2cc1C [FAD]
  X-ray crystal structure, 2.9 Å: The FAD cofactor was found non-covalently bound in the crystal structure
